From PubChem BioAssay AID192 (DTP/NCI, 2004)
Values joined by “and” are separate entries in the source; they are usually repeats but may differ in a detail not shown here. Equal values may be shown once. Toxic doses and inconclusive results are not listed. The calls were made as follows: active = survival T/C of 150% or more; inactive = T/C below 125% in these data.

Test system: BDF1 mice, B16 melanoma ip, median survival T/C
Experiment: NCI In Vivo Anticancer Drug Screen. Data for tumor model B16 Melanoma (intraperitoneal) in B6D2F1 (BDF1) mice
Settings: endpoint: median survival time, higher = longer survival
Procedure, shortened: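 Antitumor activity is assessed in mice bearing a transplanted tumor, with survival or tumor size compared against vehicle-dosed controls and expressed as T/C.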

[1] = dose: 0.25 mg/kg/injection, schedule: Q01DX009 (ip), vehicle: saline
[2] = dose: 0.5 mg/kg/injection, schedule: Q01DX009 (ip), vehicle: saline
[3] = dose: 1.0 mg/kg/injection, schedule: Q01DX009 (ip), vehicle: saline with Tween-80
[4] = dose: 1.0 mg/kg/injection, schedule: Q01DX009 (ip), vehicle: saline
[5] = dose: 2.0 mg/kg/injection, schedule: Q01DX009 (ip), vehicle: saline
[6] = dose: 4.0 mg/kg/injection, schedule: Q01DX009 (ip), vehicle: saline
[7] = dose: 100.0 mg/kg/injection, schedule: Q01DX009 (ip), vehicle: saline with Tween-80
[8] = dose: 400.0 mg/kg/injection, schedule: Q01DX009 (ip), vehicle: saline with Tween-80
[9] = dose: 12.5 mg/kg/injection, schedule: Q01DX009 (ip), vehicle: saline with Tween-80
[10] = dose: 25.0 mg/kg/injection, schedule: Q01DX009 (ip), vehicle: saline with Tween-80
[11] = dose: 50.0 mg/kg/injection, schedule: Q01DX009 (ip), vehicle: saline with Tween-80
[12] = dose: 200.0 mg/kg/injection, schedule: Q01DX009 (ip), vehicle: Klucel (hydroxypropylcellulose) (HPC)
[13] = dose: 50.0 mg/kg/injection, schedule: Q01DX009 (ip), vehicle: Klucel (hydroxypropylcellulose) (HPC)
[14] = dose: 100.0 mg/kg/injection, schedule: Q01DX009 (ip), vehicle: Klucel (hydroxypropylcellulose) (HPC)
[15] = dose: 25.0 mg/kg/injection, schedule: Q01DX009 (ip), vehicle: saline
[16] = dose: 50.0 mg/kg/injection, schedule: Q01DX009 (ip), vehicle: saline
[17] = dose: 100.0 mg/kg/injection, schedule: Q01DX009 (ip), vehicle: saline
[18] = dose: 200.0 mg/kg/injection, schedule: Q01DX009 (ip), vehicle: saline
[19] = dose: 6.25 mg/kg/injection, schedule: Q01DX009 (ip), vehicle: saline
[20] = dose: 400.0 mg/kg/injection, schedule: Q01DX009 (ip), vehicle: Klucel (hydroxypropylcellulose) (HPC)

Measured: T/C

C1CCC2C[N-]CCC2C1.C1CCC2C[N-]CCC2C1.C1CCC2C[N-]CCC2C1.C1CCC2C[N-]CCC2C1.[Cl][Rh][Cl] (stereo unspecified)
inactive: [1] 100 % of control | dose: 0.5 mg/kg/injection, schedule: Q01DX009 (ip), vehicle: saline with Tween-80 104 % of control | [2] 104 % of control | [3] 95 % of control | [4] 115 % of control | dose: 2.0 mg/kg/injection, schedule: Q01DX009 (ip), vehicle: saline with Tween-80 92 % of control | [5] 123 % of control | dose: 4.0 mg/kg/injection, schedule: Q01DX009 (ip), vehicle: saline with Tween-80 86 % of control | [6] 115 % of control | dose: 8.0 mg/kg/injection, schedule: Q01DX009 (ip), vehicle: saline 110 % of control

O=P(OCC(Br)CBr)(OCC(Br)CBr)OCC(Br)CBr (stereo unspecified)
inactive: dose: 100.0 mg/kg/injection, schedule: Q04DX003 (ip), vehicle: Klucel (hydroxypropylcellulose) (HPC) 100 % of control | dose: 200.0 mg/kg/injection, schedule: Q04DX003 (ip), vehicle: Klucel (hydroxypropylcellulose) (HPC) 102 % of control | dose: 400.0 mg/kg/injection, schedule: Q04DX003 (ip), vehicle: Klucel (hydroxypropylcellulose) (HPC) 101 % of control

Nc1ccc(-c2ccc(N)c([N+](=O)[O-])c2)cc1[N+](=O)[O-]
inactive: [7] 100 % of control | dose: 200.0 mg/kg/injection, schedule: Q01DX009 (ip), vehicle: saline with Tween-80 97 % of control | [8] 105 % of control

O=C(Nc1ccccc1F)C(c1ccccc1)c1ccccc1
inactive: [9] 101 % of control | [10] 95 % of control | [11] 95 % of control | [12] 86 % of control

O=C1C(N2CC2)=C(N2CCCC(O)C2)C(=O)C(N2CC2)=C1N1CCCC(O)C1 (stereo unspecified)
inactive: [1] 113 % of control | [2] 120 % of control

Cc1ccc(OS(=O)(=O)c2ccc([N+](=O)[O-])cc2)cc1
inactive: [13] 97 % of control | [14] 97 % of control | [12] 111 % of control

CC(C)n1c2c([n+](C)c1/C=C/c1ccccc1)C(=O)c1ccccc1C2=O
inactive: dose: 0.13 mg/kg/injection, schedule: Q01DX009 (ip), vehicle: saline 94 % of control | [1] 96 % of control | [2] 100 % of control | [3] 94 % of control | [4] 102 % of control | [5] 90 % of control | [6] 97 % of control

Cc1c(Cl)cccc1NC(=O)c1ccccc1C(=O)O
inactive: [14] 100 % of control | [12] 102 % of control

COc1cc(C2C3=C(CC(C)(C)CC3=O)N(CC(=O)O)C3=C2C(=O)CC(C)(C)C3)ccc1O
inactive: dose: 50.0 mg/kg/injection, schedule: Q01DX009 (ip), vehicle: water 103 % of control | dose: 100.0 mg/kg/injection, schedule: Q01DX009 (ip), vehicle: water 101 % of control | dose: 200.0 mg/kg/injection, schedule: Q01DX009 (ip), vehicle: water 115 % of control

NCCC(=O)OC1CCCc2c(O)c3c(c(O)c21)C(=O)c1ccccc1C3=O (stereo unspecified)
inactive: dose: 12.5 mg/kg/injection, schedule: Q01DX009 (ip), vehicle: saline 96 % of control | [15] 100 % of control | [16] 93 % of control

N#Cc1cn(C2OC(CO)C(O)C2O)c2ncnc(N)c12 (stereo unspecified)
inactive: dose: 0.06 mg/kg/injection, schedule: Q01DX009 (ip), vehicle: saline 120 % of control | dose: 0.12 mg/kg/injection, schedule: Q01DX009 (ip), vehicle: saline 118 % of control | [1] 105 % of control

Nc1ccccc1O
inactive: [16] 93 % of control and 99 % of control | [17] 101 % of control and 93 % of control | [18] 91 % of control and 94 % of control

c1ccc(C2=C([P+](c3ccccc3)(c3ccccc3)c3ccccc3)CCO2)cc1
inactive: dose: 6.0 mg/kg/injection, schedule: Q01DX009 (ip), vehicle: saline 116 % of control | [19] 105 % of control

O=C(O)CNC(=O)C(Br)Cc1ccccc1 (stereo unspecified)
inactive: [10] 91 % of control | [11] 88 % of control | [7] 91 % of control | [8] 89 % of control

Cc1c(Cl)cccc1NC(=O)c1cccc([N+](=O)[O-])c1
inactive: dose: 75.0 mg/kg/injection, schedule: Q01DX009 (ip), vehicle: Klucel (hydroxypropylcellulose) (HPC) 95 % of control | dose: 150.0 mg/kg/injection, schedule: Q01DX009 (ip), vehicle: Klucel (hydroxypropylcellulose) (HPC) 87 % of control | dose: 300.0 mg/kg/injection, schedule: Q01DX009 (ip), vehicle: Klucel (hydroxypropylcellulose) (HPC) 91 % of control

CC1(C)N=C(N)N=C(N)N1c1ccc(OCCCNC(=O)Nc2cccc(S(=O)(=O)F)c2)c(Cl)c1
inactive: [15] 102 % of control | [16] 124 % of control

CC(=O)NC1=C(N2CC2C)C(=O)C(NC(C)=O)=C(N2CC2C)C1=O (stereo unspecified)
inactive: dose: 0.62 mg/kg/injection, schedule: Q01DX009 (ip), vehicle: saline 89 % of control | dose: 1.25 mg/kg/injection, schedule: Q01DX009 (ip), vehicle: saline 105 % of control

O=C(CCCN1CCC(O)(c2cccc(C(F)(F)F)c2)CC1)c1ccc(F)cc1
inactive: dose: 0.04 mg/kg/injection, schedule: Q01DX009 (ip), vehicle: Klucel (hydroxypropylcellulose) (HPC) 93 % of control | dose: 0.19 mg/kg/injection, schedule: Q01DX009 (ip), vehicle: Klucel (hydroxypropylcellulose) (HPC) 101 % of control | dose: 0.39 mg/kg/injection, schedule: Q01DX009 (ip), vehicle: Klucel (hydroxypropylcellulose) (HPC) 112 % of control | dose: 0.78 mg/kg/injection, schedule: Q01DX009 (ip), vehicle: Klucel (hydroxypropylcellulose) (HPC) 105 % of control | dose: 4.0 mg/kg/injection, schedule: Q01DX009 (ip), vehicle: Klucel (hydroxypropylcellulose) (HPC) 95 % of control | dose: 8.0 mg/kg/injection, schedule: Q01DX009 (ip), vehicle: Klucel (hydroxypropylcellulose) (HPC) 98 % of control

CC(C)C1OC(=O)/C=C/C=C/C=C/C=C/C=C/CC(O)C(C)C(O)CC(O)CC(O)CC(O)CC(O)CC(O)CC(O)/C=C/C1C (stereo unspecified)
inactive: [19] 98 % of control

CC1CCN(c2ccc([N+](=O)[O-])cc2[N+](=O)[O-])CC1
inactive: [13] 100 % of control | [14] 100 % of control | [12] 112 % of control

C[CH2][Pb]([CH2]C)([CH2]C)[O]C(=O)COC
inactive: dose: 1.56 mg/kg/injection, schedule: Q01DX009 (ip), vehicle: Klucel (hydroxypropylcellulose) (HPC) 96 % of control | dose: 3.13 mg/kg/injection, schedule: Q01DX009 (ip), vehicle: Klucel (hydroxypropylcellulose) (HPC) 105 % of control

CC(=O)NCCCCCCNC(C)=O
inactive: [17] 101 % of control | [18] 105 % of control | dose: 400.0 mg/kg/injection, schedule: Q01DX009 (ip), vehicle: saline 87 % of control | dose: 800.0 mg/kg/injection, schedule: Q01DX009 (ip), vehicle: saline 105 % of control

COC1OC2COC(c3ccccc3)OC2C(O)C1N (stereo unspecified)
inactive: [10] 95 % of control | dose: 33.0 mg/kg/injection, schedule: Q04DX003 (ip), vehicle: saline with Tween-80 91 % of control | [11] 95 % of control | dose: 75.0 mg/kg/injection, schedule: Q04DX003 (ip), vehicle: saline with Tween-80 93 % of control | [7] 90 % of control

CC(=O)C(C)(NCc1ccccc1)c1ccccc1 (stereo unspecified)
inactive: [13] 86 % of control | [14] 89 % of control

Cc1ccc(NC(=O)Nc2cccc3ccccc23)c(C)c1
inactive: [14] 89 % of control | [12] 98 % of control

FC(F)(F)c1ccc2c(c1)N(CCCN1CC[N+]3(CCOCC3)CC1)c1ccccc1S2
inactive: [2] 105 % of control | [4] 94 % of control and 102 % of control | [5] 100 % of control and 105 % of control | [6] 94 % of control

O=C(CBr)c1ccc(F)cc1
inactive: dose: 3.12 mg/kg/injection, schedule: Q01DX009 (ip), vehicle: Klucel (hydroxypropylcellulose) (HPC) 106 % of control | dose: 6.25 mg/kg/injection, schedule: Q01DX009 (ip), vehicle: Klucel (hydroxypropylcellulose) (HPC) 91 % of control | dose: 12.5 mg/kg/injection, schedule: Q01DX009 (ip), vehicle: Klucel (hydroxypropylcellulose) (HPC) 99 % of control

Cc1ccc(C2NC(=O)c3ccccc3N2)s1 (stereo unspecified)
inactive: [13] 99 % of control | [14] 102 % of control | [12] 105 % of control | [20] 96 % of control

CCOc1ccc(NC(=O)COc2ccc(Cl)cc2)cc1
inactive: [14] 103 % of control | [12] 109 % of control | [20] 93 % of control

Cc1ccc(C(C)(C)Cl)cc1O
inactive: [9] 117 % of control | [10] 112 % of control | [11] 96 % of control
